In US10881644B2, “Treatment of asthma and chronic obstructive pulmonary disease with anti-proliferate and anti-inflammatory drugs” (Lutonix, Inc., priority 2006, dated 2021):
Each block holds one compound with its values, some of them ahead of it.

Assays:
[1] = 1 minute after intravenous injection in rats; cited from earlier work
[2] = Stability under ethylene oxide sterilization, heating and aging with paclitaxel; assay type: physicochemical; details: formulated with paclitaxel
albumin = details: cited from earlier work
[3] = Drug coated PTCA balloon catheter in pig blood vessels: residual drug on balloon and drug content in tissue by tissue extraction and HPLC; details: after only 0.2-2 minutes of deployment; substance used as additive in the drug coating
Excerpt: 6 PTCA balloon catheters (3.5 and 3.0 mm in diameter and 20 mm in length) were inflated at 1-3 atm. […] The sufficient amount of drug on the balloon (3 microgram per square mm) was obtained. The inflated balloon was folded, and then dried. The coated folded balloon was then rewrapped and sterilized for animal testing.
The coated PTCA balloon catheter was inserted into target site in the blood vessels (LAD, LCX and RCA) in the 25-45 ib pig was inflated to 12 atm. […] The drug was delivered into the target tissue in 30-60 seconds. The balloon catheter was then deflated and was withdrawn from the animal body. The target blood vessel was harvested at 0.25-24 hours after inflation. The drug content in the target tissue and the residual drug remained on the balloon were analyzed by tissue extraction and HPLC. In some of the animal tests the stent was crimped on the drug coated balloon catheters prior to deployment.
All data is the average of five or six experimental data points.

[4] = with the addition of BSA; cited from earlier work

Compound: I-iothalamate
share of myocardial content found in the extravascular space [1]: approximately 80%

stability under ethylene oxide sterilization, heating, and aging process [2]: not stable
Compound: O=C(O)c1cc(O)ccc1O [gentisic acid]

Compound: O=C(O)c1ccccc1 [benzoic acid]
stability under ethylene oxide sterilization, heating, and aging process [2]: not stable

Compound: CO[C@H]1C[C@@H]2CC[C@@H](C)[C@@](O)(O2)C(=O)C(=O)N2CCCC[C@H]2C(=O)O[C@H]([C@H](C)C[C@@H]2CC[C@@H](O)[C@H](OC)C2)CC(=O)[C@H](C)/C=C(\C)[C@@H](O)[C@@H](OC)C(=O)[C@H](C)C[C@H](C)/C=C/C=C/C=C/1C [rapamycin]
protein bound (albumin): 92%

Compound: O=C1O[C@H](CO)[C@@H](O)[C@H]1O [ribonic acid lactone]
drug absorption by tissue / drug levels in tissue [3]: unexpectedly high

Compound: CC(=O)O[C@H]1C(=O)[C@@]2(C)[C@H]([C@H](OC(=O)c3ccccc3)[C@]3(O)C[C@H](OC(=O)[C@H](O)[C@@H](NC(=O)c4ccccc4)c4ccccc4)C(C)=C1C3(C)C)[C@]1(OC(C)=O)CO[C@@H]1C[C@@H]2O [paclitaxel]
increase of solubility in PBS [4]: over 20 fold

stability under ethylene oxide sterilization, heating, and aging process [2]: not stable
Compound: O=C1O[C@H]([C@@H](O)CO)C(O)=C1O [ascorbic acid]

stability under ethylene oxide sterilization, heating, and aging process [2]: not stable
Compound: OCCNCCO [diethanolamine]

drug absorption by tissue / drug levels in tissue [3]: unexpectedly high
Compound: O=C1O[C@H](CO)[C@@H](O)[C@H](O)[C@H]1O [gluconolactone]
